Source: patent US9913792B2, “Methods of regulating skin health and appearance with a combination of flavonoid and vitamin B3” (The Procter & Gamble Company, priority 2014, dated 2018)
Values joined by “and” are separate entries in the source; they are usually repeats but may differ in a detail not shown here. Identical values can stand only once.

What was measured:
[1] = system: Human dermal fibroblasts; test: Extracellular acidification rate (ECAR) of fibroblasts after hydrogen peroxide challenge; type: cell-based
Description: The effect of a combination of a flavonoid compound, a vitamin B3 compound, and a hydrolyzed silk protein on cellular energy production was assessed by measuring the extracellular acidification rate (“ECAR”) of fibroblasts after exposure to hydrogen peroxide challenge (FIG. 2). ECAR provides an indirect measure of glycolysis. Treatment with hydrogen peroxide replicates stress induced by UV radiation or chemical pollution and decreases the ECAR. An XF Extracellular Flux Analyzer (Seahorse Bioscience, North Billerica, Mass.) was used to detect extracellular acidification rate. Human dermal fibroblasts were plated at 1×10^5 cells per well in a 96-well plate 24 hours prior to testing. The plate was loaded into the analyzer and equilibrated according to the manufacturer's instructions. Hydrogen peroxide, quercetin (Tocris Bioscience), GSS (BioSpectrum) and niacinamide were loaded into an automated injection port of the XF cartridge plate. The analyzer was programmed to sequentially run a two-minute mix cycle and a four-minute measurement cycle continuously for at least 108 minutes. Data points were collected and recorded by the analyzer. The analyzer was allowed to complete three cycles to establish a baseline value for glycolysis prior to being exposed to the peroxide solution. […]
[…] The ECAR was calculated as a percent of pre-treatment baseline. […]

[2] = system: human keratinocytes; test: Intracellular ATP levels in keratinocytes stressed with H2O2 (ATP Glo luminescence); type: cell-based; conditions: for ATP: luminescent counts; for % Control: ATP
Description: The effects of a flavonoid compound, a vitamin B3 compound, a hydrolyzed silk protein and a combination thereof, on intracellular ATP levels were assessed. Keratinocytes were cultured in T150 flasks in EpiLife® medium (MEPICFPRF500, Life Technologies, Grand Island, N.Y.) supplemented with human keratinocyte growth supplement (S-001-5, Life Technologies) and 1% penicillin/streptomycin (15140-122, Life Technologies). When the keratinocytes reached about 70% confluency, they were plated on 96-well plates at a density of 20,000 cells/well. The plates were incubated for 24 hours before the experimental stressor (H2O2) and treatment (niacinamide and/or GSS, Crosilk™ 1000, Crosilk™ Liquid, or HerbEx Silk Peptides) were applied.
The 96-well plate was divided into groups of wells in which (1) no stressor or treatment was applied, (2) stressor was applied but no treatment, and (3) stressor and treatment were applied. For the no stressor or treatment group, the culture medium was simply refreshed. In combination experiments, stressor and two treatments were applied. […] The plates were returned to the CO2 incubator for 90 minutes before ATP was measured.
ATP was measured by removing the media from all treatment groups and controls and replacing the media with ATP Glo® reagent (Promega, Madison, Wis.) per the manufacturer's instructions. After 10 minutes of exposure at room temperature, the luminescence was measured using an EnVision® plate reader (Perkin Elmer, Waltham, Mass.). The luminescent counts that were the output from the measurement were directly proportional to the ATP levels in the cells.
Replicates of each treatment group were averaged together and standard p-value calculations were used (2-sided, equal variance) to calculate significance. In cases where two treatments appeared to synergistically enhance ATP levels, the observed results were compared to the sum of the individual treatment groups to determine significance. The ATP levels measured following treatment are provided below.

[3] = 250 uM Niacinamide + 880 uM H202

| SMILES | rate of glycolysis (ECAR) in stressed cells ([1]; 1.5 mM hydrogen peroxide, 15 uM quercetin, 90 minutes following treatment (FIG. 1)) | ECAR as percent of pre-treatment baseline ([1]; 1.75 mM hydrogen peroxide, 3% niacinamide alone) | ATP [2, 3] | ATP ([2]; 0.05% Niacinamide + 800 uM H202, 90 minutes) | % Control [2, 3] [%] | % Control ([2]; 0.05% Niacinamide + 800 uM H202) [%] |
| --- | --- | --- | --- | --- | --- | --- |
| O=c1c(O)c(-c2ccc(O)c(O)c2)oc2cc(O)cc(O)c12 [Quercetin, 2-(3,4-dihydroxyphenyl)-3,5,7-trihydroxy-4H-chromen-4-one] | significantly increase the rate of glycolysis |  |  |  |  |  |
| NC(=O)c1cccnc1 [Niacinamide, niacinamide] |  | provided a protective effect and increased the ECAR | 85645 and 75045 and 80345 | 185268 | 29.5 | 43.3 |
